We go through one molecule from patent US10175221B2, “Detection device to identify markers dissolved in a liquid by means of a measurement of resistivity variation, detection method and use of marker and detection device” (SICPA HOLDING SA, priority 2014, dated 2019).

SMILES strings stand for the structures.

This data set in a line: Solubility of the tested additives into diesel fuel.

For the molecule `CCCCN(CCO)CCO` [N-butyldiethanolamine], the “Maximum evaluated concentration of marker soluble into diesel fuel” value runs as follows: (Table 1) under 100 ppm; (Table 2) under 100 ppm.
